Data set [1] deals with σ2 receptor. The following applies: cited from earlier work.
Data set [2] addresses T1, σ1 receptor (Cavia porcellus, UniProt Q60492).
T1 construct: from tissue; host or cells: guinea pig brain without cerebellum (male Dunkin guinea pigs, Envigo)
Kind of data set: σ1 receptor radioligand binding assay with (+)-[3H]pentazocine, guinea pig brain membranes. Conditions: mean of at least two experiments in duplicate, read-out: Ki ± SEM σ1. The method, then: (§1) All of the procedures for the binding assays were previously described. σ1 and σ2 receptor binding assays were carried out according to the literature.[25] […] Incubations were stopped by addition of 1 mL of ice-cold buffer [50 mM TRIS (pH 8.0)], and then the suspension was filtered through GF/B presoaked in 0.3% polyethylenimine (PEI) for at least 60 min prior to use. The filters were washed twice with 1 mL of ice-cold buffer. […] Incubations were stopped by addition of 1 mL of ice-cold buffer [50 mM TRIS (pH 8.0)], and then the suspension was filtered through GF/B presoaked in 0.5% polyethylenimine (PEI) for at least 60 min prior to use. The filters were washed twice with 1 mL of ice-cold buffer. […] Scatchard parameters (Kd and Bmax) and apparent inhibition constants (Ki) were determined by nonlinear curve fitting using GraphPad Prism (version 5.0).[64]

In data set [3] the target is T2, σ2 receptor (Rattus norvegicus, UniProt Q5U3Y7).
T2 construct: from tissue; host or cells: rat liver (Wistar Hannover rats, Envigo)
T2 sequence (Q5U3Y7 1-176): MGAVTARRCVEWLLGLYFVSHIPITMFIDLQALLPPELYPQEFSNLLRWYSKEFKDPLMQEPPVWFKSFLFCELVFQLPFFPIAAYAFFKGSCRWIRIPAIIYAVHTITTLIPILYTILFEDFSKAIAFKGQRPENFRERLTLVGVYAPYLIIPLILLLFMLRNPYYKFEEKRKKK
Kind of data set: σ2 receptor radioligand binding assay with [3H]DTG, rat liver membranes. The following applies: for Ki: [3H]DTG with 1 μM (+)-pentazocine, rat liver membranes, mean of at least two experiments in duplicate, read-out: Ki ± SEM σ2; for σ2 selectivity over σ1: from Ki values at σ1 and σ2. As to the method: as §1

A short description of data set [4]: Fluorescence spectroscopy and quantum yield measurements. The class given is physicochemical.
In data set [5] the target is T3, σ2 receptor (Homo sapiens, UniProt Q5BJF2). Kind of data set: Flow cytometry studies in MCF7 and MCF7KO cells. Type of data set: cell-based. The arrangement: This cell line was selected on the basis of its high σ2 receptor expression levels; endogenous in cells; host or cells: MCF7 (and MCF7KO, partial TMEM97 knockdown by shRNA). The following applies: flow cytometry, data not shown. As to the method: Subsequently, the cells were harvested by trypsinization and resuspended in 250 μL of FACS-PBS. The fluorescence intensity was measured by flow cytometry using a BD LSRFortessaTM X-20 cell analyzer (Becton Dickinson, Palo Alto, CA). For this, in total 20000 cells per sample were evaluated. The results were analyzed and quantified using BD FACSDivaTM software.

Data set [6] concerns the target σ1 receptor. The following applies: Figure 1 reference compounds and fluorescent ligands; cited from earlier work.
For data set [7], the target named is T3, σ2 receptor. Kind of data set: Flow cytometry σ2 receptor binding assay with fluorescent ligand in place of the radioligand, MCF7 cells. The arrangement: This cell line was selected on the basis of its high σ2 receptor expression levels; endogenous in cells; host or cells: MCF7 (and MCF7KO, partial TMEM97 knockdown by shRNA).
Experimental: Similarly, 2 × 10^5 MCF7 cells/well were seeded in a 12-well plate and allowed to recover for 24 h at 37 °C.
At the end of the incubation periods, cells were washed twice with PBS, detached with 200 mL of Cell Dissociation Solution (Sigma Chemical Co.) for 10 min at 37 °C, centrifuged at 13000g for 5 min, and resuspended in 500 mL of PBS. The fluorescence was recorded using a Bio-Guava easyCyte 5 Flow Cytometry System (Millipore, Billerica, MA), with a 530 nm band-pass filter. For each analysis, 50000 events were collected and analyzed with the InCyte software (Millipore).
[8] abbreviates: Figure 1 reference compounds and fluorescent ligands, read-out: σ2 Ki.

The values below come from article PMC10041534, “Development of Fluorescent 4-[4-(3H-Spiro[isobenzofuran-1,4′-piperidin]-1′-yl)butyl]indolyl Derivatives as High-Affinity Probes to Enable the Study of σ Receptors via Fluorescence-Based Techniques” (Journal of Medicinal Chemistry, 2023).

SMILES strings stand for the structures. “And” between values parts separate entries of the source, which are not always exact repeats. Equal entries are not always repeated. Where two headings read alike, the source gives them in different places. Marks after values point to notes of the source that are not given here. A value given as a limit tells only on which side of the number the result lay.

T3 sequence (Q5BJF2 whole entry): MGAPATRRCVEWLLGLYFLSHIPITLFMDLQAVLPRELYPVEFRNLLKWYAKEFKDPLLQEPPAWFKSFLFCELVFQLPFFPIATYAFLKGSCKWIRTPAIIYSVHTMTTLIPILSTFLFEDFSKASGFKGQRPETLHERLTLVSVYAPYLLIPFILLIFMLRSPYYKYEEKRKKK
T1 sequence (Q60492 whole entry): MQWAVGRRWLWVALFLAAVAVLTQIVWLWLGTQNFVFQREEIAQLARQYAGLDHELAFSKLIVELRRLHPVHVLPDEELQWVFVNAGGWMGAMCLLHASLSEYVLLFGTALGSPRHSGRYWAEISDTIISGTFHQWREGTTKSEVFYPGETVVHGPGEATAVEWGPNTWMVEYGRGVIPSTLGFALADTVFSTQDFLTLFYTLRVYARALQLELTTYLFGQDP

As a reminder, the Ki is a dissociation constant, usually derived from enzyme kinetics or from competition with a known ligand. For `CC1CCN(CCOc2ccc(Cl)cc2)CC1` [Compound 31, 1-[2-(4-chlorophenoxy)ethyl]-4-methylpiperidine], the Ki on σ2 receptor [1] (read-out: Ki at the σ2 receptor) was 239 nM.

`CN(C)c1ccc2c(c1)C(=O)N(CCCn1cc(CCCCN3CCC4(CC3)OCc3ccccc34)c3ccccc31)C2=O` [Compound 16, 2-(3-{3-[4-(3H-Spiro[isobenzofuran-1,4′-piperidin]-1′-yl)butyl]-1H-indol-1-yl}propyl)-5-(dimethylamino)isoindoline-1,3-dione]: the Ki at σ1 receptor [2] is 39.3 ± 9 nM. Besides, at σ2 receptor [3], the Ki was 10.1 ± 1.1 nM and the “σ2 selectivity over σ1” value is recorded as 3–10 fold. Further, in data set [4] (CHCl3), the quantum yield was determined as 6.85%, the λem is on record as 490 nm and the λex is given as 395 nm. At σ2 receptor [5], the “signals in MCF7 cells” value is on record as “dose-dependent signals” and the “signals in MCF7 cells upon administration of 2” value (shortened to “signals … of 2”) is recorded as “abated”.

Take `O=C(COc1ccc(-c2ccc3n2[B-](F)(F)[N+]2=C(c4cccs4)C=CC2=C3)cc1)NCCCCCCn1cc(CCCCN2CCC3(CC2)OCc2ccccc23)c2ccccc21` [Compound 18, N-(6-{3-[4-(3H-Spiro[isobenzofuran-1,4′-piperidin]-1′-yl)butyl]-1H-indol-1-yl}hexyl)-2-{4-[5,5-difluoro-7-(thiophen-2-yl)-5H-5λ^4,6λ^4-dipyrrolo[1,2-c:2′,1′-f][1,3,2]diazaborinin-3-yl]phenoxy}acetamide]: the Ki on σ1 receptor [2] came out at 473 ± 30 nM; on σ2 receptor [3], 220 ± 12 nM. Further, in data set [4] (dissolved in CH3OH), the λem is 630 ^b nm. Further, the λex in data set [4] (dissolved in CH3OH) is reported as 587 ^b nm.

On to `CN(C)c1ccc2c(c1)C(=O)N(CCCCCCn1cc(CCCCN3CCC4(CC3)OCc3ccccc34)c3ccccc31)C2=O` [Compound 17, 2-(6-{3-[4-(3H-Spiro[isobenzofuran-1,4′-piperidin]-1′-yl)butyl]-1H-indol-1-yl}hexyl)-5-(dimethylamino)isoindoline-1,3-dione], for which the Ki on σ1 receptor [2] is 38.1 ± 5.2 nM. At σ2 receptor [3], the Ki is 3.84 ± 0.8 nM and the “σ2 selectivity over σ1” value is 3–10 fold. Further, in data set [4] (CHCl3), the quantum yield is 6.85% and 6.80%; the λem amounted to 490 nm; the λex came out at 395 nm. Besides, on σ2 receptor [5], the “signals in MCF7 cells” value is listed as “dose-dependent signals” and the “signals … of 2” value is listed as “abated”.

With `CC1CCN(CCCCc2cccc3cc(OCCCCCCN4C(=O)c5ccc(N(C)C)cc5C4=O)ccc23)CC1` [Compound 5], the Ki at σ1 receptor [6] is 5.2 nM; on σ2 receptor [1] (setting [8]), 45.6 nM.

On to `C[N+]1=C(/C=C/C=C/C=C/C=C2\N(CCCCCC(=O)NCCCCCCn3cc(CCCCN4CCC5(CC4)OCc4ccccc45)c4ccccc43)c3ccccc3C2(C)C)C(C)(C)c2ccccc21.[I-]` [Compound 20, 2-{(1E,3E,5E)-7-[(E)-1-{6-[(6-{3-[4-(3H-Spiro[isobenzofuran-1,4′-piperidin]-1′-yl)butyl]-1H-indol-1-yl}hexyl)amino]-6-oxohexyl}-3,3-dimethylindolin-2-ylidene]hepta-1,3,5-trien-1-yl}-1,3,3-trimethyl-3H-indol-1-ium], for which the inhibition constant (Ki) on σ1 receptor [2] turned out to be 88.8 ± 15.1 nM. The Ki at σ2 receptor [3] turned out to be 39.8 ± 4.2 nM. In data set [4] (CHCl3), this molecule had a quantum yield of 39.08%, a λem of 787 nm and a λex of 762 nm.

Take `COc1cc2c(cc1OC)CN(CCCN1CCc3c(OCCCCCCN4C(=O)c5ccc(N(C)C)cc5C4=O)cccc3C1=O)CC2` [Compound 3]: the Ki on σ1 receptor [6] is > 5000 nM.

Regarding `CN(C)c1ccc2c(c1)C(=O)N(c1ccc3ccn(CCCCN4CCC5(CC4)OCc4ccccc45)c3c1)C2=O` [Compound 23, 2-{1-[4-(3H-Spiro[isobenzofuran-1,4′-piperidin]-1′-yl)butyl]-1H-indol-6-yl}-5-(dimethylamino)isoindoline-1,3-dione], the Ki at σ1 receptor [2] is 296 ± 71 nM. Besides, on σ2 receptor [3], the Ki was determined as 5.07 ± 1.07 nM and the “σ2 selectivity over σ1” value amounted to 60 fold. Further, in data set [4] (CHCl3), the quantum yield is given as 1.31%, the λem came to 490 nm and the λex came to 395 nm. Also, at σ2 receptor [5], the “signals in MCF7 cells” value is given as “dose-dependent signals” and the “signals … of 2” value is “abated”.

With `c1ccc2c(c1)COC21CCN(CCCCn2ccc3ccccc32)CC1` [Compound 8, reference compound], the “σ2 selectivity over σ1” value on σ2 receptor [3] was found to be 60 fold. Also, the inhibition constant Ki on σ2 receptor [1] (setting [8]) was 0.43 nM.

Turning to `C[N+]1=C(/C=C/C=C/C=C/C=C2/N(CCCCCC(=O)Nc3ccc4ccn(CCCCN5CCC6(CC5)OCc5ccccc56)c4c3)c3ccccc3C2(C)C)C(C)(C)c2ccccc21.[I-]` [Compound 30, 2-[(1E,3E,5E)-7-{(Z)-1-[6-({1-[4-(3H-Spiro[isobenzofuran-1,4′-piperidin]-1′-yl)butyl]-1H-indol-6-yl}amino)-6-oxohexyl]-3,3-dimethylindolin-2-ylidene}hepta-1,3,5-trien-1-yl]-1,3,3-trimethyl-3H-indol-1-ium], the Ki at σ1 receptor [2] amounted to 569 ± 85 nM. In addition, at σ2 receptor [3], the Ki came to 39.4 ± 6.1 nM and the “σ2 selectivity over σ1” value was ~10 fold. In data set [4] (CHCl3), the quantum yield was determined as 40.24%, the λem is given as 787 nm and the λex turned out to be 762 nm.

Regarding `COc1cc2c(cc1OC)CN(CCCN1CCc3c(OC)cccc3C1=O)CC2` [Compound 2], the Ki on σ1 receptor [6] is 2440 nM; at σ2 receptor [1] (setting [8]), 4.24 nM; at σ2 receptor [7] (displacement of compound 19 (100 nM)), 4.07 nM; at σ2 receptor [7] (displacement of compound 29 (100 nM)), 5.04 nM.

Take `O=C(COc1ccc(C2=[N+]3C(=Cc4ccc(-c5cccs5)n4[B-]3(F)F)C=C2)cc1)Nc1ccc2ccn(CCCCN3CCC4(CC3)OCc3ccccc34)c2c1` [Compound 28, N-{1-[4-(3H-Spiro[isobenzofuran-1,4′-piperidin]-1′-yl)butyl]-1H-indol-6-yl}-2-{4-[5,5-difluoro-7-(thiophen-2-yl)-5H-5λ^4,6λ^4-dipyrrolo[1,2-c:2′,1′-f][1,3,2]diazaborinin-3-yl]phenoxy}acetamide]: at σ1 receptor [2], the Ki is > 5000 nM. In addition, in data set [4] (dissolved in CH3OH), the λem was 630 ^b nm and the λex is 587 ^b nm.
